The source of these data is US12460050B2, “Nitric oxide-releasing hyperbranched compounds as antibacterial scaffolds and methods pertaining thereto” (The University of North Carolina at Chapel Hill, priority 2017, dated 2025).

The data set concerns Human gingival fibroblasts (HGF-1). Put plainly: In vitro cytotoxicity (MTS) of PAMAM scaffolds. The format is cell-based. The procedure: The toxicity of the PAMAM scaffolds to human gingival fibroblasts (HGF-1) was evaluated after 2 and 24 h exposure times. Human gingival fibroblasts (HGF-1) were grown in FibroLife fibroblast serum-free media, and incubated in 5 vol % CO2 under humidified conditions at 37° C. The cells were trypsinized at 80% confluency and seeded into tissue culture-treated polystyrene 96-well plates at a density of 10^4 cells/well. The plates were incubated for an additional 24 h at 37° C. The supernatant was aspirated and replaced with 100 μL of fresh growth medium containing various concentrations of PAMAM scaffolds. After two incubation time points (i.e., 2 and 24 h) at 37° C., the supernatant was aspirated, and the cells were washed with DPBS. A 100 μL solution of media/MTS/PMS (105/20/1, v/v/v) solution was added to each well, and incubated for 3 h at 37° C. The absorbance of the colored supernatant was quantified at 490 nm using a Thermoscientific Multiskan EX plate reader (Waltham, MA). Measurements for untreated cells (control) and media/MTS/PMS mixture (blank) were also collected. Results were expressed as percentage of relative cell viability as follows: % cell viability=[(Abs490−Absblank)□/(Abscontrol−Absblank)]×100% (Eq. 1)
A killing curve was constructed for NO-releasing and control PAMAM scaffolds by plotting % cell viability versus concentration (mg mL^−).

Regarding Hyperbranched polyamidoamine [h-PAMAM], the “toxicity to HGF-1 (in words)” value is on record as “most toxic”.
